# Data taken from patent US6734161B1, “Peptide nucleic acids having antibacterial activity” (priority 1997, dated 2004).
# {LysNH2} = C-terminal lysine amide
# Assays:
# [1] = tested on: β-Galactosidase (start codon region); experiment: in vitro coupled transcription/translation in E. coli S-30 cell extract, β-galactosidase production; format: biochemical
# Method: (§1) Strain D10-1 was grown to mid log phase in LB media supplemented with 4 g/L glucose. The preparation of S-30 cell extracts and coupled transcription/translation reactions were carried out as described in Ellman, J., ibid., using plasmid pMAS2, which carries the E. coli gene for β-galactosidase.
# PNA oligomers (SEQ ID NOs. 5-8 above) were evaluated in an in vitro assay in which plasmid DNA encoding the genes for β-galactosidase and β-lactamase were added to a template depleted e. coli S-30 cell extract along with the reagents necessary for coupled transcription and translation (Chen, H. Z., Zubay, G., Methods in Enzymol., 1983, 101, 674-690; Ellman, J., et al., Methods in Enzymol., 1991, 202, 301-337). The assay is sensitive to inhibitors that prevent initiation of translation.
# [2] = tested on: β-lactamase (start codon region); format: biochemical, E. coli; conditions: for IC50: read-out: PNA concentration required for 50 % inhibition (IC50) of β-lactamase activity, S-30 cell extract, unmodified gene
# [3] = tested on: β-lactamase; conditions: for inhibition of β-lactamase production in strain carrying two base substitutions: AS19 transformed with pLac-2, compared with pBR322; for inhibition of β-lactamase production in strain carrying 6 base substitutions: AS19 transformed with pLac-6
# Method: The cultures were grown at 37° C. to approximately 0.5 O.D. 550 nm. β-Lactamase activity was determined using the chromogenic β-lactamase substrate PADAC (Calbiochem, San Diego, Calif.) and absorbance measurements at 570 nm (Kobayashi, et al., Antimicrob. Agents Chemotherap., 1988, 32, 1040). β-Galactosidase activity was determined using the substrate o-nitrophenyl-β-galactoside (ONPG) and absorbance measurements at 420 nm as described previously (Miller, J. H., Experiments in Molecular Genetics, 1972, Cold Spring Harbor, N.Y., 1972, 82-85).
# The cultures were grown at 37° C. to approximately 0.5 O.D. 550 nm.
# The activity of PNAs in an in vivo assay was determined. […] 5-8 were included in cultures of permeable E. coli strain AS19 (Sekiguchi, ibid.) and the expression of β-galactosidase and β-lactamase was measured in cells exposed to IPTG at various time points.
# The inhibition of β-lactamase production was evaluated by growing cells in the presence of PNA from an early stage to mid log phase.
# The in vivo specificity of selected PNAs (SEQ ID NOs. 6 and 7) was determined using E. coli AS19 that was transformed with pBR322 and its derivatives containing the target site mutations (pLac-2 and pLac-6).
# [4] = tested on: Ribosomal RNAs; experiment: cell-free translation assay (β-galactosidase production) with PNA targeted to ribosomal RNAs; format: biochemical, E. coli; conditions: S-30 cell extract, ONPG
# Method: as §1
# Plasmid DNA encoding β-galactosidase was added to a template depleted E. coli S-30 cell extract along with the reagents necessary for coupled transcription/translation (Chen, ibid; Ellman, J., ibid). Production of β-galactosidase was measured […] using the substrate ONPG (Miller, ibid). The assay is sensitive to inhibitors that prevent complete or accurate translation of the enzyme. Several of the targeted PNAs inhibited β-galactosidase production in a dose dependent manner, with IC50s in the nanomolar range. […] The SEQ ID Nos. and the sequences are shown below in Table 2.
# PNAs of similar composition, but unrelated sequence, were assayed along with targeted PNAs as controls for non-sequence specific effects. […] No inhibition was detected at a dose of 1 μM for the control PNAs.
# [5] = tested on: Ribosomal RNAs; experiment: transcription vs. translation assay (32P-UTP and 35S-methionine incorporation); format: biochemical, E. coli; conditions: increasing concentrations of PNA
# Method: Transcription in the cell-free system was assayed using reactions that contained 34 μM of cold UTP and 1 μCi ^32P-UTP. After 30 minutes the reactions were stopped with 10 volumes of 5% TCA and incubated on ice for 30 minutes. Translation in the cell-free system was assayed using reactions that contained 5 mM cold UTP and 1 μCi ^35S-methionine. After 30 minutes the reactions were stopped with an equal volume of 1 M NaOH and placed at 37° C. for 15 minutes. An equal volume of cold 50% TCA containing 2% casein hydrolysate acids was added and after 30 minutes on ice, 1 mL of 5% TCA was added. The TCA precipitable material having radioactivity was collected by vacuum filtration, rinsed five times with 5% TCA and dried. Cerenkov and scintillation counting were used to determine ^32P-UTP and ^35S-methionine incorporation.
# The transcription and translation activities yielding β-galactosidase was examined using ^32P-UTP and ^35S-methionine in the assay procedures of Example 5. With increasing concentrations of targeted PNA (SEQ ID NOs. 12 and 13), the level of radioactive methionine incorporation was reduced.
# [6] = tested on: E. coli strain K12; experiment: cell growth assay using E. coli (K12); conditions: 2 μL applied onto solid media, overnight 37° C.
# Method: Growth assays were initiated using Luria Broth (LB) Media inoculated with 1% (v/v) of an overnight E. coli culture. For solid media cultures, 2 mL of molten LB/agar media was inoculated and spread onto pre-warmed (LB)/agar plates. The excess molten media was poured off and the plates were left to solidity for 30 minutes. PNA and antibiotic solutions were pipetted (2 μL) directly onto the solidified overlay and the plates were incubated overnight at 37° C. For liquid media cultures, 100 μL of inoculated LB media was aliquoted into microtitre plate wells containing PNA or antibiotic solutions and the plates were incubated overnight at 37° C. The presence or absence of growth was assessed visually as a zone of clearing on solid media or as a lack of turbidity in liquid cultures.
# The inhibition of cell growth was examined using PNA sequences 9-18 in E. coli grown on agar media. Luria broth (LB)/agar plates were prepared with a thin overlay of media containing an inoculum of E. coli strain K12. PNA solutions were applied directly onto the solidified overlay by direct pipetting of 2 μL aliquotes. After overnight incubation at 37° C., a lawn of bacterial cells was established.
# [7] = tested on: E. coli mutant strain (AS19); experiment: cell growth assay using E. coli (AS19); conditions: 100 μL liquid cultures
# Method: Growth assays were initiated using Luria Broth (LB) Media inoculated with 1% (v/v) of an overnight E. coli culture. […] For liquid media cultures, 100 μL of inoculated LB media was aliquoted into microtitre plate wells containing PNA or antibiotic solutions and the plates were incubated overnight at 37° C. The presence or absence of growth was assessed visually as a zone of clearing on solid media or as a lack of turbidity in liquid cultures.
# The assay was repeated with the cells in 100 μL liquid cultures. […] The inhibition was determined to be that concentration which visibly limited the growth of the E. coli in a 100 μL culture.
# [8] = tested on: E. coli lac repressor gene (start codon region); experiment: PNA-mediated upregulation of beta-galactosidase on X-gal LB/agar plate; format: cell-based; conditions: lawn of E. coli AS19 on LB/agar with X-gal
# Method: An antisense PNA (H-[…]-Lys-NH2, SEQ ID No: 27) was prepared targeting the start codon region of the E. coli lac repressor gene. The lacR gene normally limits beta-galactosidase expression in E. coli cells that are grown in nutrient rich conditions, without lactose. The anti-lacR PNA (SEQ ID No: 27) was applied to a lawn of E. coli AS19 cells grown on a LB/agar plate containing a chromogenic beta-galactosidase substrate (X-gal). The petri plate was prepared as described above.
# [9] = concentrations as high as 400 nM
substance,measurement,setting,value
"5 (GGTCATAGCTGTTTC; all peptide nucleic acid (PNA), 3' {LysNH2}; further chemistry not fully specified) [compound 5]",IC50,"[1]; read-out: PNA concentration required for 50 % inhibition (IC50) of β-galactosidase activity, S-30 cell extract, coupled transcription and translation",10 nM
6 (TACTCATACTCTTCC; chemistry not given here) [compound 6],IC50,[2],30 nM
same,inhibition of β-lactamase production in strain carrying two base substitutions,[3],reduced
same,inhibition of β-lactamase production in strain carrying 6 base substitutions,[3],abolished
7 (GAATACTCATACTCT; chemistry not given here) [compound 7],IC50,[2],200 nM
same,inhibition of β-lactamase production in strain carrying two base substitutions,[3],reduced
same,inhibition of β-lactamase production in strain carrying 6 base substitutions,[3],abolished
8 (ACGCCACATCTTCGC; chemistry not given here) [compound 8],inhibition of β-galactosidase production,[1]; [9],no inhibition
same,inhibition of β-lactamase production,[2]; [9],no inhibition
"12 (TTNTNNNTTTNTNTCTTTCCGTCTT; listed as DNA, chemistry not given here) [compound 12]",IC50,[4],200 nM
same,level of radioactive UTP (transcription),[5],remained the same
same,level of radioactive methionine incorporation (translation),[5],reduced
same,growth inhibition (zones of clearing),[6],inhibited cell growth
same,concentration which visibly limited growth,[7],30 µM
"13 (NTNTNNTNTCCTCTC; listed as DNA, chemistry not given here) [compound 13]",IC50,[4],350 nM
same,level of radioactive UTP (transcription),[5],remained the same
same,level of radioactive methionine incorporation (translation),[5],reduced
same,growth inhibition (zones of clearing),[6],inhibited cell growth
same,concentration which visibly limited growth,[7],10 µM
"27 (ACATTCACCACCCTG; all peptide nucleic acid (PNA), 3' {LysNH2}; further chemistry not fully specified) [compound 27]",beta-galactosidase production (blue zone at sites of application),[8],Increased beta-galactosidase production
